Reference: patent publication US20260274853A1, “BIFUNCTIONAL COMPOUNDS CONTAINING PYRIMIDINE DERIVATIVES FOR DEGRADING CYCLIN-DEPENDENT KINASE 2 VIA UBIQUITIN PROTEASOME PATHWAY” (NIKANG THERAPEUTICS, INC., priority 2022, published 2026)

What was measured:
[1] = molecular target: T1, CDK2 (Homo sapiens, UniProt P24941); assay: Inhibition of CDK2: phospho-Rb (S807/811) HTRF measurement in OVCAR3 cells; format: cell-based; conditions: 24 h compound treatment, read-out: pRb (nM), IC50 in pRB(S807/811) assay
T1 construct: High-Throughput Measurement of Cellular Endogenous CDK2; endogenous in cells; host or cells: OVCAR3

[2] = molecular target: T1, CDK2; assay: CDK2 HTRF assay: cellular endogenous CDK2 level in OVCAR3 cells; format: cell-based; conditions: 24 hours compound treatment, read-out: DC50 (half maximal degradation concentration of CDK2)
Method in brief: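 Endogenous CDK2 degradation in OVCAR3 cells after 24 h compound treatment at 0.3–10,000 nM. Lysates assayed with an HTRF total-CDK2 two-antibody kit, TR-FRET 665/620 ratio normalized to DMSO. DC50 from four-parameter logistic fit, reported as potency bins.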

Row | IC50 [1] [nM] | DC50 [2] [nM] | Compound
1 | < 100 | < 100 | Cn1nc(N2CCC(=O)NC2=O)c2ccc(C3CCN(CC4CCN(c5cccc(S(=O)(=O)N6CCC(Nc7ncc(C(F)(F)F)c(-c8cnn(CC(F)(F)F)c8)n7)CC6)c5)CC4)CC3)cc21 [Example 50, 1-(1-methyl-6-(1-((1-(3-((4-((4-(1-(2,2,2-trifluoroethyl)-1H-pyrazol-4-yl)-5-(trifluoromethyl)pyrimidin-2-yl)amino)-piperidin-1-yl)sulfonyl)phenyl)-piperidin-4-yl)methyl)piperidin-4-yl)-1H-indazol-3-yl)dihydropyrimidine-2,4(1H,3H)-dione]
2 | < 100 | < 100 | Cn1nc(N2CCC(=O)NC2=O)c2ccc(C3CCN(Cc4cc(S(=O)(=O)N5CCC(Nc6ncc(C(F)(F)F)c(-c7cnn(CC(F)(F)F)c7)n6)CC5)ccc4F)CC3)cc21 [Example 61, 1-(6-(1-(2-fluoro-5-((4-((4-(1-(2,2,2-trifluoroethyl)-1H-pyrazol-4-yl)-5-(trifluoromethyl)pyrimidin-2-yl)-amino)piperidin-1-yl)sulfonyl)benzyl)-piperidin-4-yl)-1-methyl-1H-indazol-3-yl)dihydropyrimidine-2,4(1H,3H)-dione]
3 | < 100 | < 100 | Cc1ncsc1-c1ccc([C@H](C)NC(=O)[C@@H]2C[C@@H](O)CN2C(=O)[C@@H](NC(=O)CC2CCN(Cc3cccc(S(=O)(=O)N4CCC(Nc5ncc(C(F)(F)F)c(-c6cnn(CC(F)(F)F)c6)n5)CC4)c3)CC2)C(C)(C)C)cc1 [Example 62, (2S,4R)-1-((S)-3,3-dimethyl-2-(2-(1-(3-((4-((4-(1-(2,2,2-trifluoroethyl)-1H-pyrazol-4-yl)-5-(trifluoromethyl)-pyrimidin-2-yl)amino)piperidin-1-yl)-sulfonyl)benzyl)piperidin-4-yl)-acetamido)butanoyl)-4-hydroxy-N-((S)-1-(4-(4-methylthiazol-5-yl)phenyl)-ethyl)pyrrolidine-2-carboxamide]
4 | < 100 | < 100 | Cn1nc(N2CCC(=O)NC2=O)c2ccc(C3CCN(Cc4cccc(S(=O)(=O)N5CCC(Nc6ncc(C(F)(F)F)c(-c7cnn(CC(F)(F)F)c7)n6)CC5)c4)CC3)c(F)c21 [Example 64, 1-(7-fluoro-1-methyl-6-(1-(3-((4-((4-(1-(2,2,2-trifluoroethyl)-1H-pyrazol-4-yl)-5-(trifluoromethyl)pyrimidin-2-yl)amino)-piperidin-1-yl)sulfonyl)-benzyl)-piperidin-4-yl)-1H-indazol-3-yl)dihydro-pyrimidine-2,4(1H,3H)-dione]
5 | < 100 | < 100 | O=C1CCC(N2CC3CCC(C2)N3Cc2cccc(S(=O)(=O)N3CCC(Nc4ncc(C(F)(F)F)c(-c5cnn(CC(F)(F)F)c5)n4)CC3)c2)C(=O)N1 (stereo not shown) [Example 65, 3-(8-(3-((4-((4-(1-(2,2,2-trifluoro-ethyl)-1H-pyrazol-4-yl)-5-(trifluoro-methyl)pyrimidin-2-yl)amino)-piperidin-1-yl)sulfonyl)benzyl)-3,8-diazabicyclo-[3.2.1]octan-3-yl)-piperidine-2,6-dione]
6 | < 100 | < 100 | Cn1nc(N2CCC(=O)NC2=O)c2ccc(N3CCN(CC4CCN(c5cccc(S(=O)(=O)N6CCC(Nc7ncc(C(F)(F)F)c(-c8cnn(CC(F)(F)F)c8)n7)CC6)c5)CC4)CC3)cc21 [Example 67, 1-(1-methyl-6-(4-((1-(3-((4-((4-(1-(2,2,2-trifluoroethyl)-1H-pyrazol-4-yl)-5-(trifluoromethyl)pyrimidin-2-yl)amino)-piperidin-1-yl)sulfonyl)phenyl)piperidin-4-yl)methyl)-piperazin-1-yl)-1H-indazol-3-yl)-dihydropyrimidine-2,4(1H,3H)-dione]
7 | < 100 | < 100 | O=C1CCC(NCc2cccc(S(=O)(=O)N3CCC(Nc4ncc(C(F)(F)F)c(-c5cnn(CC(F)(F)F)c5)n4)CC3)c2)C(=O)N1 (stereo not shown) [Example 68, 3-((3-((4-((4-(1-(2,2,2-trifluoroethyl)-1H-pyrazol-4-yl)-5-(trifluoromethyl)-pyrimidin-2-yl)amino)piperidin-1-yl)-sulfonyl)benzyl)amino)piperidine-2,6-dione]
8 | < 100 | < 100 | Cn1c(S(=O)(=O)N2CCC(Nc3ncc(C(F)(F)F)c(-c4cnn(CC(F)(F)F)c4)n3)CC2)cnc1CN1CCN(c2ccc3c(N4CCC(=O)NC4=O)nn(C)c3c2)CC1 [Example 69, 1-(1-methyl-6-(4-((1-methyl-5-((4-((4-(1-(2,2,2-trifluoroethyl)-1H-pyrazol-4-yl)-5-(trifluoromethyl)pyrimidin-2-yl)amino)-piperidin-1-yl)sulfonyl)-1H-imidazol-2-yl)methyl)piperazin-1-yl)-1H-indazol-3-yl)dihydropyrimidine-2,4(1H,3H)-dione]
9 | < 100 | < 100 | O=C1CCC(NC2CCN(Cc3cccc(S(=O)(=O)N4CCC(Nc5ncc(C(F)(F)F)c(-c6cnn(CC(F)(F)F)c6)n5)CC4)c3)CC2)C(=O)N1 (stereo not shown) [Example 72, 3-((1-(3-((4-((4-(1-(2,2,2-trifluoro-ethyl)-1H-pyrazol-4-yl)-5-(trifluoromethyl)-pyrimidin-2-yl)amino)-piperidin-1-yl)-sulfonyl)benzyl)piperidin-4-yl)amino)-piperidine-2,6-dione]
10 | < 100 | < 100 | Cn1nc(N2CCC(=O)NC2=O)c2cc(F)c(N3CCN(Cc4cccc(S(=O)(=O)N5CC[C@H](Nc6ncc(C(F)(F)F)c(-c7cnn(CC(F)(F)F)c7)n6)[C@H](F)C5)c4)CC3)cc21 [Example 73, 1-(5-fluoro-6-(4-(3-(((3R,4S)-3-fluoro-4-((4-(1-(2,2,2-trifluoroethyl)-1H-pyrazol-4-yl)-5-(trifluoromethyl)pyrimidin-2-yl)amino)piperidin-1-yl)sulfonyl)-benzyl)piperazin-1-yl)-1-methyl-1H-indazol-3-yl)dihydropyrimidine-2,4(1H,3H)-dione]
11 | < 100 | < 100 | Cn1nc(N2CCC(=O)NC2=O)c2ccc(C3CCN(Cc4cccc(S(=O)(=O)[C@H]5CC[C@H](Nc6ncc(C(F)(F)F)c(-c7cnn(CC(F)(F)F)c7)n6)CC5)c4)CC3)cc21 [Example 74, 1-(1-methyl-6-(1-(3-(((1r,4r)-4-((4-(1-(2,2,2-trifluoroethyl)-1H-pyrazol-4-yl)-5-(trifluoromethyl)pyrimidin-2-yl)-amino)cyclohexyl)sulfonyl)benzyl)-piperidin-4-yl)-1H-indazol-3-yl)dihydro-pyrimidine-2,4(1H,3H)-dione]
12 | < 100 | < 100 | Cc1ncsc1-c1ccc([C@H](C)NC(=O)[C@@H]2C[C@@H](O)CN2C(=O)[C@@H](NC(=O)C2(F)CC2)C(C)(C)SCC2CCN(Cc3cccc(S(=O)(=O)N4CCC(Nc5ncc(C(F)(F)F)c(-c6cnn(CC(F)(F)F)c6)n5)CC4)c3)CC2)cc1 [Example 77, (2S,4R)-1-((R)-2-(1-fluorocyclopropane-1-carboxamido)-3-methyl-3-(((1-(3-((4-((4-(1-(2,2,2-trifluoroethyl)-1H-pyrazol-4-yl)-5-(trifluoromethyl)pyrimidin-2-yl)-amino)piperidin-1-yl)sulfonyl)-benzyl)-piperidin-4-yl)methyl)thio)-butanoyl)-4-hydroxy-N-((S)-1-(4-(4-methylthiazol-5-yl)phenyl)ethyl)-pyrrolidine-2-carboxamide]
13 | < 100 | < 100 | CC(Cc1cccc(S(=O)(=O)N2CCC(Nc3ncc(C(F)(F)F)c(-c4cnn(CC(F)(F)F)c4)n3)CC2)c1)CN1CCC(c2ccc3c(N4CCC(=O)NC4=O)nn(C)c3c2)CC1 (stereo not shown) [Example 78, 1-(1-methyl-6-(1-(2-methyl-3-(3-((4-((4-(1-(2,2,2-trifluoroethyl)-1H-pyrazol-4-yl)-5-(trifluoromethyl)-pyrimidin-2-yl)amino)piperidin-1-yl)sulfonyl)-phenyl)propyl)piperidin-4-yl)-1H-indazol-3-yl)dihydro-pyrimidine-2,4(1H,3H)-dione]
14 | < 100 | < 100 | CN1CCC(n2cc(-c3nc(NC4CCN(S(=O)(=O)c5cccc(CN6CCC(c7ccc8c(N9CCC(=O)NC9=O)nn(C)c8c7)CC6)c5)CC4)ncc3C(F)(F)F)cn2)CC1 [Example 79, 1-(1-methyl-6-(1-(3-((4-((4-(1-(1-methylpiperidin-4-yl)-1H-pyrazol-4-yl)-5-(trifluoromethyl)pyrimidin-2-yl)-amino)piperidin-1-yl)sulfonyl)-benzyl)-piperidin-4-yl)-1H-indazol-3-yl)dihydro-pyrimidine-2,4(1H,3H)-dione]
15 | < 100 | < 100 | O=C1CCN(C2CCN(Cc3cccc(S(=O)(=O)N4CCC(Nc5ncc(C(F)(F)F)c(-c6cnn(CC(F)(F)F)c6)n5)CC4)c3)C2)C(=O)N1 (stereo not shown) [Example 81, 1-(1-(3-((4-((4-(1-(2,2,2-trifluoro-ethyl)-1H-pyrazol-4-yl)-5-(trifluoromethyl)-pyrimidin-2-yl)amino)-piperidin-1-yl)sulfonyl)benzyl)-pyrrolidin-3-yl)-dihydropyrimidine-2,4(1H,3H)-dione]
16 | < 100 | < 100 | Cn1nc(N2CCC(=O)NC2=O)c2ccc(N3CC4CC(C3)N4Cc3cccc(S(=O)(=O)N4CC[C@H](Nc5ncc(C(F)(F)F)c(-c6cnn(CC(F)(F)F)c6)n5)[C@H](F)C4)c3)cc21 [Example 82, 1-(6-(6-(3-(((3R,4S)-3-fluoro-4-((4-(1-(2,2,2-trifluoroethyl)-1H-pyrazol-4-yl)-5-(trifluoromethyl)pyrimidin-2-yl)amino)-piperidin-1-yl)sulfonyl)-benzyl)-3,6-diazabicyclo[3.1.1]heptan-3-yl)-1-methyl-1H-indazol-3-yl)dihydro-pyrimidine-2,4(1H,3H)-dione]
17 | 100 to 500 | < 100 | O=C1CCC(NS(=O)(=O)N2CCC(Nc3ncc(C(F)(F)F)c(-c4cnn(CC(F)(F)F)c4)n3)CC2)C(=O)N1 (stereo not shown) [Example 83, N-(2,6-dioxopiperidin-3-yl)-4-((4-(1-(2,2,2-trifluoroethyl)-1H-pyrazol-4-yl)-5-(trifluoromethyl)pyrimidin-2-yl)-amino)piperidine-1-sulfonamide]
